9 molecules from patent US10925876B2, “Methods for using triazolo-pyrazinyl soluble guanylate cyclase activators in fibrotic disorders” (Merck Sharp & Dohme Corp., priority 2016, dated 2021) can be followed below.

Assay [1] has as its system Spontaneously hypertensive rats (SHR). The assay is described as follows: Acute Efficacy in Spontaneously Hypertensive Rats (SHR), telemetry blood pressure. The assay is classed as in vivo, rat. The settings on record: single oral gavage. Put shortly:
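Male SHR fitted with aortic telemetry transmitters and recovered 14 days; conscious blood pressure sampled 30 s every 10 min. Single oral gavage dose (vehicle 10% transcutol/20% Cremophor/70% water); hourly SBP change versus prior-day vehicle baseline, reported as maximum peak decrease.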

The target in another assay is T1, sGC α1/β1 heterodimer (Homo sapiens, UniProt Q02108+Q02153).
T1 construct: expressed in transfected cells
T1 sequence (Q02108 1-690): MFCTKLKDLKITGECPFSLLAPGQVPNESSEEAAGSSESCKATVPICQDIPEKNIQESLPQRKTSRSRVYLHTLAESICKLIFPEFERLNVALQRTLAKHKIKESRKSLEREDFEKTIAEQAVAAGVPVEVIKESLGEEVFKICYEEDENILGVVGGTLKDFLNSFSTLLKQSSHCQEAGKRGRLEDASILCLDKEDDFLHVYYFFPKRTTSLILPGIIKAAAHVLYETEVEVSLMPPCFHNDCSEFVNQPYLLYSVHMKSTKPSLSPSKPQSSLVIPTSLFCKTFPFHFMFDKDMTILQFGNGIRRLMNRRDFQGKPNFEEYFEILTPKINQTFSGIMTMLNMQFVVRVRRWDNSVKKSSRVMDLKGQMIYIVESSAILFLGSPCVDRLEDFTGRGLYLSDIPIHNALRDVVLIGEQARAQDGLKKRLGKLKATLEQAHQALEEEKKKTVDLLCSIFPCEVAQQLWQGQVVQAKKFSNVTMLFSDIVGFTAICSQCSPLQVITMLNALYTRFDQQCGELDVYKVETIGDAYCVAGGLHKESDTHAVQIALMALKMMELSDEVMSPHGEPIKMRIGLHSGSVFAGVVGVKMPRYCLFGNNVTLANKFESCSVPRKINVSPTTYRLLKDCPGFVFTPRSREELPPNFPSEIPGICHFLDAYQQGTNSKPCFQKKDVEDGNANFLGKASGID
T1 sequence (Q02153 1-619): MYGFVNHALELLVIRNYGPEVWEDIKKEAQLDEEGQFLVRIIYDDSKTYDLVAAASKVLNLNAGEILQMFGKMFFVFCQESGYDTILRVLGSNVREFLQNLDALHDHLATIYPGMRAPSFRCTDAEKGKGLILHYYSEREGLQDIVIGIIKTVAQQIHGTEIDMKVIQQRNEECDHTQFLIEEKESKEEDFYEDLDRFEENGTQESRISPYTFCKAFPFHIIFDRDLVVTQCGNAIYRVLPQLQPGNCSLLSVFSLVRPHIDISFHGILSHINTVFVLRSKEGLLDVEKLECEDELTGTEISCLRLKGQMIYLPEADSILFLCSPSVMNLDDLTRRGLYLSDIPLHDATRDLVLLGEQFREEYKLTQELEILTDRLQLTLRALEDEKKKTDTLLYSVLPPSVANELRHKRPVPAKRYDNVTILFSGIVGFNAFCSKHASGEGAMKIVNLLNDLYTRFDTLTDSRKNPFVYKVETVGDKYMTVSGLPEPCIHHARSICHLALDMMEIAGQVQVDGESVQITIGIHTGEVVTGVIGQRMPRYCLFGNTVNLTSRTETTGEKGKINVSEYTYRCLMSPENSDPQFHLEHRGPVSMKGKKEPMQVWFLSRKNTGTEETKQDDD
The assay is described as follows: Cell-Based sGC Functional Assay (CASA Assay), cGMP generation in CHO-K1/sGC cells.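 Note: reference Compound A is a published heme-dependent sGC activator.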 To be noted: maximum cGMP production of Compound A set to 100% activation, read-out: % Act. (percent activation relative to Compound A). Put shortly: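 CHO-K1 cells stably expressing human sGC α1/β1, 4×10^5/mL in EBSS with 5 mM MgCl2, 10 mM HEPES, 0.05% BSA, 0.5 mM IBMX, 2.5% DMSO; compounds 1 h at 37 °C ± 1 μM DETA-NO. cGMP by HTRF, expressed as % of reference Compound A maximum; IP and max fold induction from 4P fit.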

Regarding `CC1(c2ccccc2)C(=O)Nc2nc(-c3cn4ncnc4c(CCCC(F)(F)F)n3)nc(O)c21` (stereo not drawn) [Example 143B, 4-hydroxy-5-methyl-5-phenyl-2-(8-(4,4,4-trifluorobutyl)-[1,2,4]triazolo[1,5-a]pyrazin-6-yl)-5H-pyrrolo[2,3-d]pyrimidin-6(7H)-one], the “Maximum peak decrease of systolic blood pressure (SBP) in SHR, Cat.” value (“Maximum peak decrease” for short) in assay [1] (P.O. 1 mpk) was “B (Category B=SBP in SHRs 20-40 mmHg)”. Besides, at sGC α1/β1 heterodimer, the Emax stood at 114%.

With `CC1(c2ccc(F)c(F)c2)C(=O)Nc2nc(-c3cn4ncnc4c(CCCC(F)(F)F)n3)nc(O)c21` (stereo not drawn) [Example 146B, 5-(3,4-difluorophenyl)-4-hydroxy-5-methyl-2-(8-(4,4,4-trifluorobutyl)-[1,2,4]triazolo[1,5-a]pyrazin-6-yl)-5H-pyrrolo[2,3-d]pyrimidin-6(7H)-one], the “Maximum peak decrease” value in assay [1] (P.O. 0.3 mpk) is “B (Category B=SBP in SHRs 20-40 mmHg)”. In addition, the Emax at sGC α1/β1 heterodimer stood at 154%.

On to `C[C@@]1(c2ccc(F)cc2)C(=O)Nc2nc(-c3cn4ncnc4c(CCC(F)(F)F)n3)nc(O)c21` [Example 151A, (S)-5-(4-fluroophenyl)-4-hydroxy-5-methyl-2-(8-(3,3,3-trifluoropropyl)-[1,2,4]triazolo[1,5-a]pyrazin-6-yl)-5,7-dihydro-6H-pyrrolo[2,3-d]pyrimidin-6-one], for which the “Maximum peak decrease” value in assay [1] (P.O. 3 mpk) is on record as “B (Category B=SBP in SHRs 20-40 mmHg)”. The Emax at sGC α1/β1 heterodimer was found to be 120%.

For the molecule `CC1(c2ccc(Cl)cc2)C(=O)Nc2nc(-c3cn4ncnc4c(CCC(F)(F)F)n3)nc(O)c21` (stereo not drawn) [Example 152A, 5-(4-chlorophenyl)-4-hydroxy-5-methyl-2-(8-(3,3,3-trifluoropropyl)-[1,2,4]triazolo[1,5-a]pyrazin-6-yl)-5H-pyrrolo[2,3-d]pyrimidin-6(7H)-one], in assay [1] (P.O. 3 mpk), the “Maximum peak decrease” value is on record as “B (Category B=SBP in SHRs 20-40 mmHg)”. The Emax at sGC α1/β1 heterodimer is 70%.

In the case of `CCCCc1nc(-c2nc(O)c3c(n2)NC(=O)[C@@]3(C)c2ccc(F)cc2)cn2ncnc12` [Example 154A, (S)-2-(8-butyl-[1,2,4]triazolo[1,5-a]pyrazin-6-yl)-5-(4-fluorophenyl)-4-hydroxy-5-methyl-5,7-dihydro-6H-pyrrolo[2,3-d]pyrimidin-6-one], in assay [1] (P.O. 0.3 mpk), the “Maximum peak decrease” value was “B (Category B=SBP in SHRs 20-40 mmHg)”. Further, the Emax on sGC α1/β1 heterodimer came to 100%.

Take `CCCCc1nc(-c2nc(O)c3c(n2)NC(=O)C3(C)c2ccc(F)cn2)cn2ncnc12` (stereo not drawn) [Example 155B, 2-(8-butyl-[1,2,4]triazolo[1,5-a]pyrazin-6-yl)-5-(5-fluoropyridin-2-yl)-4-hydroxy-5-methyl-5H-pyrrolo[2,3-d]pyrimidin-6(7H)-one]: the “Maximum peak decrease” value in assay [1] (P.O. 1 mpk) is on record as “B (Category B=SBP in SHRs 20-40 mmHg)”. For the same molecule, the Emax on sGC α1/β1 heterodimer is 159%.

For `CCCCc1nc(-c2nc(O)c3c(n2)NC(=O)C3(C)c2ccc(Cl)c(F)c2)cn2ncnc12` (stereo not drawn) [Example 156B, 2-(8-butyl-[1,2,4]triazolo[1,5-a]pyrazin-6-yl)-5-(4-chloro-3-fluorophenyl)-4-hydroxy-5-methyl-5H-pyrrolo[2,3-d]pyrimidin-6(7H)-one], in assay [1] (P.O. 0.3 mpk), the “Maximum peak decrease” value is recorded as “C (Category C=SBP in SHRs >40 mmHg)”. Further, the Emax on sGC α1/β1 heterodimer was determined as 102%.

Regarding `CCCCc1nc(-c2nc(O)c3c(n2)NC(=O)C3(C)c2ccc(F)c(F)c2)cn2ncnc12` (stereo not drawn) [Example 158B, 2-(8-butyl-[1,2,4]triazolo[1,5-a]pyrazin-6-yl)-5-(3,4-difluorophenyl)-4-hydroxy-5-methyl-5H-pyrrolo[2,3-d]pyrimidin-6(7H)-one], the “Maximum peak decrease” value in assay [1] (P.O. 0.3 mpk) was “C (Category C=SBP in SHRs >40 mmHg)”. For the same molecule, the Emax at sGC α1/β1 heterodimer is 232%.

Take `CCCCc1nc(-c2nc(O)c3c(n2)NC(=O)C3(C)c2ccc(Cl)cn2)cn2ncnc12` (stereo not drawn) [Example 160A, 2-(8-butyl-[1,2,4]triazolo[1,5-a]pyrazin-6-yl)-5-(5-chloropyridin-2-yl)-4-hydroxy-5-methyl-5H-pyrrolo[2,3-d]pyrimidin-6(7H)-one]: the “Maximum peak decrease” value in assay [1] (P.O. 0.3 mpk) was “B (Category B=SBP in SHRs 20-40 mmHg)”. Besides, on sGC α1/β1 heterodimer, the Emax worked out at 96%.
